Read-outs that look alike come from different tables or passages of the source.
Legend:
WT OleD = biological target: T1, WT OleD (Streptomyces antibioticus, UniProt Q53685, P55A/R82V/R83E/T84P); type: biochemical; conditions: for Conversion rates (%), WT: Table 3, 4-Me-umb (4) as acceptor, end point assay; for Conversion Rate (%), WT: Table 2, acceptor 4 at 50 μM, NDP-sugar ~500 μM, 25° C., 3 h
T1 construct: made in house; host or cells: E. coli BL21(DE3)pLysS, plasmid pET28/OleD
Experimental: (§1) Reactions were carried out as described above with the following exceptions. The total volume was 50 μl and the acceptor FIG. 1: 4 was at 50 μM and the NDP-sugar at ˜500 μM. The NDP-sugars were used directly from RmlA-catalyzed reactions. […] Reactions were incubated at 25° C. for 3 h.
(§2) The total volume was 50 μl and the acceptor FIG. 1: 4 or FIG. 1: 1 was at 50 μM and the NDP-sugar at ˜500 μM. The NDP-sugars were used directly from RmlA-catalyzed reactions. […] Reactions were incubated at 25° C. for 3 h.
(§3) For activity toward FIG. 1: 4, aliquots (25 μl) were quenched with 25 μl of an 8:1 mixture of ice-cold MeOH/HCl, and centrifuged at 14,000 rpm for 10 min. […] HPLC peak areas were integrated, and the product concentration calculated as a percent of the total peak area. All products were characterized by LC-MS. Mass spectra were obtained using electrospray ionization on an Agilent 1100 HPLC-MSD SL quadrapole mass spectrometer connected to a UV/Vis diode array detector.

OleD P67T = biological target: T2, OleD P67T (Streptomyces antibioticus, UniProt Q53685, P55A/P67T/R82V/R83E/T84P); type: biochemical; conditions: Table 3, 4-Me-umb (4) as acceptor, end point assay
T2 construct: made in house; host or cells: E. coli (site-directed mutant of pET28/OleD)
Experimental: as §1, §2, §3

OleD A242V = biological target: T3, OleD A242V (Streptomyces antibioticus, UniProt Q53685, A242V/P55A/R82V/R83E/T84P); type: biochemical; conditions: Table 3, 4-Me-umb (4) as acceptor, end point assay
T3 construct: made in house; host or cells: E. coli BL21(DE3)pLysS (error-prone PCR clone in pET28a)
Experimental: as §1, §2, §3

OleD S132F = biological target: T4, OleD S132F (Streptomyces antibioticus, UniProt Q53685, P55A/R82V/R83E/S132F/T84P); type: biochemical; conditions: Table 3, 4-Me-umb (4) as acceptor, end point assay
T4 construct: made in house; host or cells: E. coli (site-directed mutant of pET28/OleD)
Experimental: as §1, §2, §3

OleD P67T/S132F/A242V [1] = biological target: T5, OleD P67T/S132F/A242V (Streptomyces antibioticus, UniProt Q53685, A242V/P67T/S132F); type: biochemical; conditions: for Conversion rates (%), P67T/S132F/A242V: Table 3, 4-Me-umb (4) as acceptor, end point assay; for Conversion Rate (%), P67T/S132F/A242V: Table 2, acceptor 4 at 50 μM, NDP-sugar ~500 μM, 25° C., 3 h
T5 construct: made in house; host or cells: E. coli (site-directed mutant of pET28/OleD)
Experimental: as §1, §2, §3

[2] = test system: ASP OleD (A242V/S132F/P67T); test: Kinetic parameters with model acceptors phenol, thiophenol, aniline; type: biochemical, Streptomyces antibioticus; conditions: UDP-Glc donor
Excerpt: To confirm O—, S- and N-glucoside formation, iterative glycosylation, and determine anomeric stereoselectivity, a select set of OleD-catalyzed reactions with simple aromatic model acceptors phenol (FIG. 17: 8), thiophenol (FIG. 17: 6), and aniline (FIG. 17: 34) were studied in depth.

OleD P67T/S132F/A242V [3] = biological target: T5, OleD P67T/S132F/A242V; type: biochemical; conditions: novobiocic acid (FIG. 9: 1) as acceptor
Experimental: Biotechnol. […] Reactions were incubated at 25° C. for 3 h. […] Supernatants were analyzed by analytical reverse-phase HPLC as described above. HPLC peak areas were integrated, and the product concentration calculated as a percent of the total peak area. All products were characterized by LC-MS.

[4] = test system: CC(C)=CCc1cc(C(=O)Nc2c(O)c3ccc(O)c(C)c3oc2=O)ccc1O; test: purified protein, by the assay type; conditions: other: named substrate varied, other substrate fixed at 5 mM; pH 8.0

## UDP-4-deoxy-glc [UDP-4-deoxy-glc (12)]
WT OleD
  Conversion rates (%), WT: 0%
OleD P67T
  Conversion rates (%), P67T: 0%
OleD A242V
  Conversion rates (%), A242V: 0%
OleD S132F
  Conversion rates (%), S132F: 0%
OleD P67T/S132F/A242V [1]
  Conversion rates (%), P67T/S132F/A242V: 22%

## Oc1ccccc1 [phenol (FIG. 17; 8), phenol]
[2]
  catalytic efficiency (kcat/Km) improvement of ASP versus WT OleD: 25 fold

## Sc1ccccc1 [thiophenol (FIG. 17: 6), thiophenol]
[2]
  catalytic efficiency (kcat/Km) improvement of ASP versus WT OleD: 4 fold

## O=c1ccn([C@@H]2O[C@H](COP(=O)(O)OP(=O)(O)O[C@H]3OC[C@@H](O)[C@H](O)[C@H]3O)[C@@H](O)[C@H]2O)c(=O)[nH]1 [UDP-xylose (7), UDP-xylose]
OleD P67T
  Conversion rates (%), P67T: 2%
OleD A242V
  Conversion rates (%), A242V: 2%
OleD S132F
  Conversion rates (%), S132F: 1.5%
OleD P67T/S132F/A242V [1]
  Conversion Rate (%), P67T/S132F/A242V: 31%
  Conversion rates (%), P67T/S132F/A242V: 31%

## UDP-6-deoxy-glucose [UDP-6-deoxy-glc (8)]
WT OleD
  Conversion Rate (%), WT: 6%
  Conversion rates (%), WT: 6%
OleD P67T
  Conversion rates (%), P67T: 11%
OleD P67T; listed as FIG. 3: 8
  Conversion rates (%), P67T: ≤ 12%
OleD A242V
  Conversion rates (%), A242V: 6%
OleD A242V; listed as FIG. 3: 8
  Conversion rates (%), A242V: ≤ 12%
OleD S132F
  Conversion rates (%), S132F: 10%
OleD S132F; listed as FIG. 3: 8
  Conversion rates (%), S132F: ≤ 12%
OleD P67T/S132F/A242V [1]
  Conversion Rate (%), P67T/S132F/A242V: 85%
  Conversion rates (%), P67T/S132F/A242V: 85%

## Nc1ccccc1 [aniline (FIG. 17: 34), aniline]
[2]
  catalytic efficiency (kcat/Km) improvement of ASP versus WT OleD: 5 fold

## [N-]=[N+]=NCC1OC(OP(=O)(O)OP(=O)(O)OC[C@H]2O[C@@H](n3ccc(=O)[nH]c3=O)[C@H](O)[C@@H]2O)C(O)C(O)C1O (stereo partly drawn) [UDP-6-azido-glc (11), UDP-6-azido-glucose]
OleD P67T/S132F/A242V [3]
  donor acceptance, P67T/S132F/A242V: albeit poorly
WT OleD
  Conversion rates (%), WT: 0%
OleD P67T
  Conversion rates (%), P67T: 2%
OleD A242V
  Conversion rates (%), A242V: 2%
OleD S132F
  Conversion rates (%), S132F: 1%
OleD P67T/S132F/A242V [1]
  Conversion rates (%), P67T/S132F/A242V: 41%

## OleD P67T/I112K/A242V (Streptomyces antibioticus; A242V/I112K/P67T)
[4]
  Km: 0.8 mM
  kcat: 5.13 min⁻¹

## UDP-6-thio-glucose [FIG. 3: 9]
WT OleD; listed as 9
  Conversion Rate (%), WT: 1%
OleD P67T/S132F/A242V [1]
  Conversion Rate (%), P67T/S132F/A242V: 47%

From US8093028B2, “Engineered glycosyltransferases with expanded substrate specificity” (Wisconsin Alumni Research Foundation, priority 2007, dated 2012)
